The numbers were not newly measured in paper PMC13584777, “Synthesis, Conformational Analysis, and Evaluation of 6R- and 6S‑Methylmannoimidazoles as Mannosidase Inhibitors” (ACS Omega, 2026), which cites them from elsewhere.

Molecules are shown by their SMILES.

The data set has as its target T1, BtMan2A (Bacteroides thetaiotaomicron, UniProt Q8AAK6).
T1 construct: purchased NZYTech CZ0810
As to conditions: Figure 3, authors' earlier study of the 1-deoxymannojirimycin series.

T1 sequence (Q8AAK6 entry or part of it, change not shown): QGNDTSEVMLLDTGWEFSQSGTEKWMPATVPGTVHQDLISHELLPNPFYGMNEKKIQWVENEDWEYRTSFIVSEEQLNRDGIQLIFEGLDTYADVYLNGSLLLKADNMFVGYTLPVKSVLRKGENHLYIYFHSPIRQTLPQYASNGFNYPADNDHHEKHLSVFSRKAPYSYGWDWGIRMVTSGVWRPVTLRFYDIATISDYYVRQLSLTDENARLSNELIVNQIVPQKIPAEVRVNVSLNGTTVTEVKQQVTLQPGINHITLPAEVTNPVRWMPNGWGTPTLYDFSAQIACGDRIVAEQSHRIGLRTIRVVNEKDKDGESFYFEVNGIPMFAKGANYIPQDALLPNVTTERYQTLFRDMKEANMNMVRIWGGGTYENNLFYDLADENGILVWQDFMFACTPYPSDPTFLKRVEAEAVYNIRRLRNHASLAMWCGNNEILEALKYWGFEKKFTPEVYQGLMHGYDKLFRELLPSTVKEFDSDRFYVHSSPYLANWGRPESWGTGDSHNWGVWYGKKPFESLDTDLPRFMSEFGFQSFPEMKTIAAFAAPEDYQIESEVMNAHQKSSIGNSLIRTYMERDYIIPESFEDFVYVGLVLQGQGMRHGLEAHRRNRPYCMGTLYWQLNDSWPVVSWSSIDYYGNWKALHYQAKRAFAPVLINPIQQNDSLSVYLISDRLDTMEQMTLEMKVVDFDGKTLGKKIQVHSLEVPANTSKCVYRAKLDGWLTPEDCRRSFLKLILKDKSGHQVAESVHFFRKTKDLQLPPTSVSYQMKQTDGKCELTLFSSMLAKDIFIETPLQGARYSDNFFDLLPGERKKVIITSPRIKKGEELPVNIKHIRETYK

What is called Ki is the equilibrium dissociation constant of an inhibitor or competing ligand from its target. Take `C[C@H](O)[C@H]1NC[C@@H](O)[C@@H](O)[C@@H]1O` [compound 2, 6S-methyl-1-deoxymannojirimycin]: the Ki was 1.4 ± 0.2 mM.
On to `C[C@@H](O)[C@H]1NC[C@@H](O)[C@@H](O)[C@@H]1O` [compound 1, 6R-methyl-1-deoxymannojirimycin], for which the Ki is 14 ± 1 mM.
